{
  "source": "patent US20220184172A1",
  "about": "“AMPK/CASPASE-6 AXIS CONTROLS LIVER DAMAGE IN NONALCOHOLIC STEATOHEPATITIS” (The Regents of the University of California, priority 2019, published 2022)",
  "test_system": "CD-HFD-fed Flox and LAKO mice",
  "assay": "A-769662 in CD-HFD-fed Flox and LAKO mice",
  "format": "in vivo",
  "conditions": "25 mg/kg i.p. daily for 2 weeks",
  "method": "FIGS. 13A-13I. A-769662 improves liver damage through AMPK activation in hepatocytes in NASH. C57BL/6J mice were fed with CD-HFD for 8 weeks. After 6 weeks of CD-HFD feeding, mice were intraperitoneally injected with 25 mg/kg A-769662 or vehicle daily for 2 weeks along with continuous CD-HFD feeding. FIG. 13A. Schematic diagram of experimental design. FIG. 13B-13C. Body weight (FIG. 13B) and liver weight (FIG. 13C) of indicated mice. n=7. FIG. 13D. Measurement of liver triglyceride (TG) of indicated mice. n=7. FIG. 13E. Quantification of the numbers of TUNEL-positive nuclei per field in liver sections shown in (FIG. 10B (W6), 10A). n=5-7 *, P<0.05, Student's unpaired t test. FIG. 13F-13H. Flox and LAKO mice were fed with CD-HPD for 8 weeks. After 6 weeks of CD-HFD feeding, mice were intraperitoneally injected with 25 mg/kg A-769662 or vehicle daily for 2 weeks along with continuous CD-HFD feeding. FIG. 13F. Paraffin-embedded liver sections of indicated mice were stained with TUNEL and DAPI as indicated therein; in the merged image sections, the different stains correspond to the grayscale shades as indicated in the single stained images to the left. Scale bar=50 μm. FIG. 13G. FIG. 13H. Serum ALT of indicated mice. n=4-5. *, P<0.05, two-way ANOVA. FIG. 13I. Expression of Adgre1 and Ccl2 in the liver of indicated mice. n=7. Data are shown as mean±SEM. *, P<0.05, Student's unpaired t test.\nFIGS. 15A-15F. AMPK phosphorylates caspase-6 and inhibits its cleavage. FIG. 15A. Caspase-6 activity was measure in the lysates from isolated primary hepatocytes treated with vehicle or 250 μM BSA-conjugated palmitic acid (PA) or 50 ng/ml TNFα for 2 hrs. Data are shown as mean±SD. *, P<0.05, Student's unpaired t test. FIG. 15B. HepG2 cells were pretreated with 40 μM A-769662 for 1 hr, and then treated with 30 μg/ml cycloheximide (CHX) and 50 ng/ml TNFα for 2 hrs. Cell lysates were subject to immunoblot (IB) analysis. FIG. 15C. […] Quantification of IB analysis in FIG. 15D. n=3. *, P<0.05, two-way ANOVA. […] Quantification of IB analysis in FIG. 5K. n=3. […]",
  "data": [
    {"compound": "N#Cc1c(O)c2c(-c3ccc(-c4ccccc4O)cc3)csc2[nH]c1=O", "note": "[A-769662]", "values": [
      {"measurement": "procaspase-6 cleavage (liver lysates)", "setting": "Flox mice", "value": "decreased"},
      {"measurement": "procaspase-6 phosphorylation (liver lysates)", "setting": "Flox mice", "value": "significantly increased"},
      {"measurement": "number of apoptotic cells (TUNEL)", "setting": "LAKO mice", "value": "did not decrease"}
    ]}
  ]
}
